Results from ChEMBL document CHEMBL1201862, “PubChem BioAssay data set” (2004).
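Exposure lasted 48 hours, with cells grown in 96-well plates and compounds tested at five concentrations. GI50 = concentration required for 50% inhibition of growth.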 Calls of active or inactive are those of the source. Cut-off read from the data, not from the text of the source: active = GI50 up to about 1.1 µM and inactive = higher.

What was measured:
Assay in all cases: growth of human tumour cells (NCI), 48 h
786-0 = test system: 786-0
K562 = test system: K562
NCI-H226 = test system: NCI-H226
OVCAR-8 = test system: OVCAR-8
NCI-H522 = test system: NCI-H522
ACHN = test system: ACHN
SN12C = test system: SN12C
SF-268 = test system: SF-268
IGROV-1 = test system: IGROV-1
HL-60 = test system: HL-60
UACC-62 = test system: UACC-62
UACC-257 = test system: UACC-257
NCI-H460 = test system: NCI-H460
HCT-116 = test system: HCT-116
SK-MEL-28 = test system: SK-MEL-28
SR = test system: SR
HT-29 = test system: HT-29
HOP-62 = test system: HOP-62
Malme-3M = test system: Malme-3M
A549 = test system: A549
U-251 = test system: U-251
RXF 631 = test system: RXF 631
RXF 393 = test system: RXF 393
HOP-92 = test system: HOP-92
OVCAR-5 = test system: OVCAR-5
COLO 205 = test system: COLO 205
CAKI-1 = test system: CAKI-1
SW-620 = test system: SW-620
DLD-1 = test system: DLD-1
NCI-H23 = test system: NCI-H23
RPMI-8226 = test system: RPMI-8226
HCT-15 = test system: HCT-15
SNB-19 = test system: SNB-19
DMS-114 = test system: DMS-114
LXFL 529 = test system: LXFL 529
CCRF-CEM = test system: CCRF-CEM
M14 = test system: M14
LOX IMVI = test system: LOX IMVI
UO-31 = test system: UO-31
OVCAR-3 = test system: OVCAR-3
XF498 = test system: XF498
MOLT-4 = test system: MOLT-4
SK-OV-3 = test system: SK-OV-3
EKVX = test system: EKVX
SF-539 = test system: SF-539
OVCAR-4 = test system: OVCAR-4
DMS-273 = test system: DMS-273
SNB-75 = test system: SNB-75
SK-MEL-2 = test system: SK-MEL-2
M19-MEL = test system: M19-MEL
HOP-18 = test system: HOP-18
KM-20L2 = test system: KM-20L2
SNB-78 = test system: SNB-78
SF-295 = test system: SF-295
SK-MEL-5 = test system: SK-MEL-5
KM12 = test system: KM12
TK-10 = test system: TK-10

Measured: GI50

Cc1noc2cccc(OCc3ccccc3)c12
50.8 µM: HCT-15
inactive: 786-0 99.3 µM | K562 43 µM | NCI-H226 46.5 µM | OVCAR-8 67.1 µM | NCI-H522 13.2 µM | ACHN 50.7 µM | SN12C > 100 µM | SF-268 > 100 µM | IGROV-1 60.1 µM | HL-60 17.3 µM | UACC-62 > 100 µM | UACC-257 53.8 µM | NCI-H460 > 100 µM | HCT-116 48.1 µM | SK-MEL-28 > 100 µM | SR 34.6 µM | HT-29 37.2 µM | HOP-62 > 100 µM | Malme-3M > 100 µM | A549 44.1 µM | U-251 93.8 µM | RXF 631 85.7 µM | RXF 393 30.8 µM | HOP-92 43.3 µM | OVCAR-5 25.6 µM | COLO 205 52.1 µM | CAKI-1 38.1 µM | SW-620 > 100 µM | DLD-1 64.9 µM | NCI-H23 > 100 µM | RPMI-8226 30.7 µM | SNB-19 91 µM | DMS-114 29 µM | LXFL 529 49 µM | CCRF-CEM 13.5 µM | M14 92.5 µM | LOX IMVI 51.3 µM | UO-31 15 µM | OVCAR-3 94.8 µM | XF498 56.9 µM | MOLT-4 39.5 µM | SK-OV-3 > 100 µM | EKVX 35.7 µM | SF-539 > 100 µM | OVCAR-4 82.8 µM | DMS-273 52 µM | SNB-75 30.6 µM | SK-MEL-2 23.8 µM | M19-MEL 60.1 µM | HOP-18 > 100 µM | KM-20L2 65.5 µM | SNB-78 80.5 µM | SF-295 72.4 µM | SK-MEL-5 17.1 µM | KM12 91.2 µM | TK-10 47 µM
